Legend:
[1] = test system: Tyrosine-protein kinase ABL1 (Homo sapiens), P00519 [E255K]; experiment: Inhibition of human phosphorylated ABL1 E255K mutant (S229 to K512 residues) expressed in mammalian expression system at 1 uM by Kinomescan method relative to control
[2] = test system: Proto-oncogene tyrosine-protein kinase receptor Ret (Homo sapiens), P07949 [V804L]; experiment: Inhibition of human partial length RET V804L mutant (E713 to D1014 residues) expressed in bacterial expression system at 1 uM by Kinomescan method relative to control
[3] = molecular target: Serine/threonine-protein kinase SIK1 (Homo sapiens) (UniProt P57059); experiment: Inhibition of wild-type human partial length SIK (M1 to Y304 residues) expressed in bacterial expression system at 1 uM by Kinomescan method relative to control
[4] = molecular target: Serine/threonine-protein kinase 32C (Homo sapiens) (UniProt Q86UX6); experiment: Inhibition of wild-type human partial length YANK3 (M68 to G486 residues) expressed in bacterial expression system at 1 uM by Kinomescan method relative to control
[5] = molecular target: Aurora kinase C (Homo sapiens) (UniProt Q9UQB9); experiment: Inhibition of wild-type human full length AURKC (M1 to S275 residues) expressed in bacterial expression system at 1 uM by Kinomescan method relative to control
[6] = test system: Receptor-type tyrosine-protein kinase FLT3 (Homo sapiens), P36888 [K663Q]; experiment: Inhibition of human partial length FLT3 K663Q mutant (V592 to Y969 residues) expressed in bacterial expression system at 1 uM by Kinomescan method relative to control
[7] = test system: Receptor-type tyrosine-protein kinase FLT3 (Homo sapiens), P36888 [N841I]; experiment: Inhibition of human partial length FLT3 N841I mutant (V592 to Y969 residues) expressed in bacterial expression system at 1 uM by Kinomescan method relative to control
[8] = molecular target: Serine/threonine-protein kinase RIO3 (Homo sapiens) (UniProt O14730); experiment: Inhibition of wild-type human full length RIOK3 (M1 to E519 residues) expressed in bacterial expression system at 1 uM by Kinomescan method relative to control
[9] = test system: Tyrosine-protein kinase ABL1 (Homo sapiens), P00519 [M351T]; experiment: Inhibition of human phosphorylated ABL1 M351T mutant (S229 to K512 residues) expressed in mammalian expression system at 1 uM by Kinomescan method relative to control
[10] = molecular target: Casein kinase I isoform gamma-2 (Homo sapiens) (UniProt P78368); experiment: Inhibition of wild-type human full length CSNK1G2 (M1 to K415 residues) expressed in bacterial expression system at 1 uM by Kinomescan method relative to control
[11] = test system: Phosphatidylinositol 4,5-bisphosphate 3-kinase catalytic subunit alpha isoform (Homo sapiens), P42336 [I800L]; experiment: Inhibition of human partial length PIK3CA I800L mutant (R108 to N1068 residues) expressed in mammalian expression system at 1 uM by Kinomescan method relative to control
[12] = molecular target: Ribosomal protein S6 kinase alpha-5 (Homo sapiens) (UniProt O75582); experiment: Inhibition of wild-type human partial length C-terminal RPS6KA5 kinase domain 2 (V390 to T718 residues) expressed in bacterial expression system at 1 uM by Kinomescan method relative to control
[13] = molecular target: Serine/threonine-protein kinase BRSK1 (Homo sapiens) (UniProt Q8TDC3); experiment: Inhibition of wild-type human partial length BRSK1 (M1 to E754 residues) expressed in bacterial expression system at 10 uM by Kinomescan method relative to control
[14] = molecular target: Non-receptor tyrosine-protein kinase TNK1 (Homo sapiens) (UniProt Q13470); experiment: Inhibition of wild-type human full length TNK1 (M1 to P661 residues) expressed in bacterial expression system at 10 uM by Kinomescan method relative to control
[15] = molecular target: Cyclin-dependent kinase 8 (Homo sapiens) (UniProt P49336); experiment: Inhibition of wild-type human partial length CDK8 (M1 to T360 residues) expressed in bacterial expression system at 10 uM by Kinomescan method relative to control
[16] = molecular target: Myosin light chain kinase, smooth muscle (Homo sapiens) (UniProt Q15746); experiment: Inhibition of wild-type human full length MYLK (M854 to E1845 residues) expressed in mammalian expression system at 10 uM by Kinomescan method relative to control
[17] = molecular target: Serine/threonine-protein kinase VRK2 (Homo sapiens) (UniProt Q86Y07); experiment: Inhibition of wild-type human partial length VRK2 (M1 to T336 residues) expressed in mammalian expression system at 10 uM by Kinomescan method relative to control
[18] = molecular target: Serine/threonine-protein kinase DCLK3 (Homo sapiens) (UniProt Q9C098); experiment: Inhibition of wild-type human partial length DCAMKL3 (E140 to V628 residues) expressed in bacterial expression system at 10 uM by Kinomescan method relative to control
[19] = molecular target: Serine/threonine-protein kinase WNK1 (Homo sapiens) (UniProt Q9H4A3); experiment: Inhibition of wild-type human partial length WNK1 (Q194 to A490 residues) expressed in mammalian expression system at 10 uM by Kinomescan method relative to control
[20] = molecular target: Protein kinase C theta type (Homo sapiens) (UniProt Q04759); experiment: Inhibition of wild-type human partial length PRKCQ (L350 to S706 residues) expressed in bacterial expression system at 10 uM by Kinomescan method relative to control
[21] = molecular target: Dual specificity mitogen-activated protein kinase kinase 5 (Homo sapiens) (UniProt Q13163); experiment: Inhibition of wild-type human partial length MEK5 (L98 to P448 residues) expressed in mammalian expression system at 10 uM by Kinomescan method relative to control
[22] = molecular target: Mitogen-activated protein kinase kinase kinase kinase 1 (Homo sapiens) (UniProt Q92918); experiment: Inhibition of wild-type human full length HPK1 (M1 to R799 residues) expressed in bacterial expression system at 10 uM by Kinomescan method relative to control
[23] = molecular target: Ephrin type-A receptor 5 (Homo sapiens) (UniProt P54756); experiment: Inhibition of wild-type human partial length EPHA5 (T627 to V930 residues) expressed in bacterial expression system at 10 uM by Kinomescan method relative to control
[24] = molecular target: Dual specificity protein kinase CLK1 (Homo sapiens) (UniProt P49759); experiment: Inhibition of wild-type human full length CLK1 (M1 to I484 residues) expressed in bacterial expression system at 10 uM by Kinomescan method relative to control
[25] = molecular target: Dual specificity mitogen-activated protein kinase kinase 6 (Homo sapiens) (UniProt P52564); experiment: Inhibition of wild-type human partial length MEK6 (K36 to D334 residues) expressed in bacterial expression system at 10 uM by Kinomescan method relative to control
[26] = molecular target: Tyrosine-protein kinase Tec (Homo sapiens) (UniProt P42680); experiment: Inhibition of wild-type human partial length TEC (L341 to D620 residues) expressed in bacterial expression system at 10 uM by Kinomescan method relative to control

Aurora kinase C (Homo sapiens), sequence (Q9UQB9 whole entry, the tested form may be a part): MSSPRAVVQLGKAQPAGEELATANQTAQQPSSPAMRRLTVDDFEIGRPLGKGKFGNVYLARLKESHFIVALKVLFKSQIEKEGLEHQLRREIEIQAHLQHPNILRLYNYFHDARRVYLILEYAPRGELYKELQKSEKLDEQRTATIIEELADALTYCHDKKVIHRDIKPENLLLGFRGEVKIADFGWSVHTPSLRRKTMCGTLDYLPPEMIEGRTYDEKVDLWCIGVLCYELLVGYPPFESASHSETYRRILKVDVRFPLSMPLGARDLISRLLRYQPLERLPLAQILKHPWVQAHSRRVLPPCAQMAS
Serine/threonine-protein kinase SIK1 (Homo sapiens), sequence (P57059 whole entry, the tested form may be a part): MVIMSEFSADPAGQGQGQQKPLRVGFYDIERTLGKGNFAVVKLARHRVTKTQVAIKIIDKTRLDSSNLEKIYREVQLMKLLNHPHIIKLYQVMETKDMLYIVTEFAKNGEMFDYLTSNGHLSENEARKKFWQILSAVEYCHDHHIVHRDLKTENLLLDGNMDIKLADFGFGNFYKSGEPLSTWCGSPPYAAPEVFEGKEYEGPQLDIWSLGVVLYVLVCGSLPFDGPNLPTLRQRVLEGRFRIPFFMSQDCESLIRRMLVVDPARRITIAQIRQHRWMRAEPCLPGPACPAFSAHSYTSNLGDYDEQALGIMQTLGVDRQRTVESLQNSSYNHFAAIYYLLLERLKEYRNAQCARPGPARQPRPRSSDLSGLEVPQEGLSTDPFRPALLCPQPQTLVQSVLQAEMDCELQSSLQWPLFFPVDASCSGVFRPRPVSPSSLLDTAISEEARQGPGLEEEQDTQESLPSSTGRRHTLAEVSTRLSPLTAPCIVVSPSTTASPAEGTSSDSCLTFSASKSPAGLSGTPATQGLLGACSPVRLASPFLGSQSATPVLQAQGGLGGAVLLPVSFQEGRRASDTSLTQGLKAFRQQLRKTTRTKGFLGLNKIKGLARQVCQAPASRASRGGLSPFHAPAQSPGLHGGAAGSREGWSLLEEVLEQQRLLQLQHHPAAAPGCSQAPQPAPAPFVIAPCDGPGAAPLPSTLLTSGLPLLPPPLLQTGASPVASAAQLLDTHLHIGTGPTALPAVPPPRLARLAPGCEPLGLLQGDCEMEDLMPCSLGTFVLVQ
Serine/threonine-protein kinase 32C (Homo sapiens), sequence (Q86UX6 whole entry, the tested form may be a part): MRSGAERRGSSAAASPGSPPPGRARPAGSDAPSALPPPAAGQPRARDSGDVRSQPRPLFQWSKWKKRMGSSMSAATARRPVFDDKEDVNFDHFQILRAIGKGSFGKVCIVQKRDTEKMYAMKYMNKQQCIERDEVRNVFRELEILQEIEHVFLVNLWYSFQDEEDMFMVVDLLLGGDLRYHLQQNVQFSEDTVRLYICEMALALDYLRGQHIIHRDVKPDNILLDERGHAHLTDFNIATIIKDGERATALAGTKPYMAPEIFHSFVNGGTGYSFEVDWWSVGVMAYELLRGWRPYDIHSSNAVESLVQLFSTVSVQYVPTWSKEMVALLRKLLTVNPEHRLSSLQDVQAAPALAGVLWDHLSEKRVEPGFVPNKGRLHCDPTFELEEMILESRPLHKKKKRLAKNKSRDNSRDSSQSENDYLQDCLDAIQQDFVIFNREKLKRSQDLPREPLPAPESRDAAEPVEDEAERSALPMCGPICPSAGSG
Serine/threonine-protein kinase RIO3 (Homo sapiens), sequence (O14730 whole entry, the tested form may be a part): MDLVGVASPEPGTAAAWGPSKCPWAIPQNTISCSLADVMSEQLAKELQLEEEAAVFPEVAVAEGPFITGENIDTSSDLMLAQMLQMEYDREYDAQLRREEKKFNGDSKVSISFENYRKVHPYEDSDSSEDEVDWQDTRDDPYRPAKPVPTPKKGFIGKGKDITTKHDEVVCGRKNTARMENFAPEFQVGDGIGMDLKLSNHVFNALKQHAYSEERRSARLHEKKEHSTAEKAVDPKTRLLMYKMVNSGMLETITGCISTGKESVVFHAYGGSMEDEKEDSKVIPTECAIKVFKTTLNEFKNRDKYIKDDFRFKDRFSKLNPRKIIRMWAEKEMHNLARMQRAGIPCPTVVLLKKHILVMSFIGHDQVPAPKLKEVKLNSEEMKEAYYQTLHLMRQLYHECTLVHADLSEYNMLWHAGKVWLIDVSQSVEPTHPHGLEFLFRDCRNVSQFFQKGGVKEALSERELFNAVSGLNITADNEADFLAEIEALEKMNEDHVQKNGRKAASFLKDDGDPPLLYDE
Phosphatidylinositol 4,5-bisphosphate 3-kinase catalytic subunit alpha isoform (Homo sapiens), P42336 [I800L], sequence (P42336 whole entry I800L, the tested form may be a part, canonical isoform): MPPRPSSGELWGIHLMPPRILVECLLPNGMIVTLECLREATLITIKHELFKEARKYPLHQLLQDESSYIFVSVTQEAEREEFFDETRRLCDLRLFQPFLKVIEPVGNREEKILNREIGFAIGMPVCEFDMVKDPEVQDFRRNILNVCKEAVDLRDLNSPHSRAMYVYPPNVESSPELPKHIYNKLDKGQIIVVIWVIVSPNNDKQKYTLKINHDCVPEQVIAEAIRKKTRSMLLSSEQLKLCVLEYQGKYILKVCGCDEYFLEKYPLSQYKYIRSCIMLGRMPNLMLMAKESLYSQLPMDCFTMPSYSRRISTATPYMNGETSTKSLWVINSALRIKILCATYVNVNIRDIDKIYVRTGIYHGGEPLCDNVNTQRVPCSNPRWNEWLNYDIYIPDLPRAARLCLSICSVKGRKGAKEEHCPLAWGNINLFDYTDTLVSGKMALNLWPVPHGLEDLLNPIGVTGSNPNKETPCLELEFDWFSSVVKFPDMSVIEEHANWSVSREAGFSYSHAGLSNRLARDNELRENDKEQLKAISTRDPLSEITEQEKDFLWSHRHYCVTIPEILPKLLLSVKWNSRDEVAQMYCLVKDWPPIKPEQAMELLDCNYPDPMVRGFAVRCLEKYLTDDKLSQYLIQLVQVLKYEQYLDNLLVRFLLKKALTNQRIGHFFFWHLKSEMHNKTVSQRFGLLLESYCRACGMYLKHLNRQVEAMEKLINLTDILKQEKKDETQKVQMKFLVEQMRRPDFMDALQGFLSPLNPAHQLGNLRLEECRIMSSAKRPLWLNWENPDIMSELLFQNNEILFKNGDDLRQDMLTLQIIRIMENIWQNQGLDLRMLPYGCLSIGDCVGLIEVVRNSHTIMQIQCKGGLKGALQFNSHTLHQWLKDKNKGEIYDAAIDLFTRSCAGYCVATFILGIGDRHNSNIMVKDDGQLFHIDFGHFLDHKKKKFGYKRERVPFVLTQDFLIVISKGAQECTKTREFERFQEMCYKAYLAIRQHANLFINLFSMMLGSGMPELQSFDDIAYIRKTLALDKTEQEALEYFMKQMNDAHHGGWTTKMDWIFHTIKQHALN
Ribosomal protein S6 kinase alpha-5 (Homo sapiens), sequence (O75582 whole entry, looked up, the tested form may be a part): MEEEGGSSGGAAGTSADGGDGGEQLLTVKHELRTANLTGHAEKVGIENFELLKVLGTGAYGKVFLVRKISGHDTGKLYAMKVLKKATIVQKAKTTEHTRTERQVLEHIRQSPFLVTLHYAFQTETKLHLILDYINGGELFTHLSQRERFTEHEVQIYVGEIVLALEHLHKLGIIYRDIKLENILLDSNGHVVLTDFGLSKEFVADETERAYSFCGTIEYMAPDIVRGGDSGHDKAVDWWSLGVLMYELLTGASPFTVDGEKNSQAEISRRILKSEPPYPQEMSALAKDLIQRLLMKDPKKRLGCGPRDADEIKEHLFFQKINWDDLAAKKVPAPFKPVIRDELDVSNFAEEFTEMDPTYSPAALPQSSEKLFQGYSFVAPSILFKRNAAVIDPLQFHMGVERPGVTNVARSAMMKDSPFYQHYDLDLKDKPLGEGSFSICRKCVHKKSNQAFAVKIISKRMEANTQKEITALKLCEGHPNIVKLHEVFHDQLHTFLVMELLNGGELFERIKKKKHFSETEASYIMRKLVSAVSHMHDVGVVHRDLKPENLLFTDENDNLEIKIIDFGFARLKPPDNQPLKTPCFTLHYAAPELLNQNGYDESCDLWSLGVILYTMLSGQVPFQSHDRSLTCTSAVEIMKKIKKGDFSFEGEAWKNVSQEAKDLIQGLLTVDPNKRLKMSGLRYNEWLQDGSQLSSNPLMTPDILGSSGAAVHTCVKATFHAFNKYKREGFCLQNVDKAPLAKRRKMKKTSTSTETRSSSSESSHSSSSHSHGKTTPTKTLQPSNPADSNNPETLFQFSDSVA
Cyclin-dependent kinase 8 (Homo sapiens), sequence (P49336 whole entry, the tested form may be a part): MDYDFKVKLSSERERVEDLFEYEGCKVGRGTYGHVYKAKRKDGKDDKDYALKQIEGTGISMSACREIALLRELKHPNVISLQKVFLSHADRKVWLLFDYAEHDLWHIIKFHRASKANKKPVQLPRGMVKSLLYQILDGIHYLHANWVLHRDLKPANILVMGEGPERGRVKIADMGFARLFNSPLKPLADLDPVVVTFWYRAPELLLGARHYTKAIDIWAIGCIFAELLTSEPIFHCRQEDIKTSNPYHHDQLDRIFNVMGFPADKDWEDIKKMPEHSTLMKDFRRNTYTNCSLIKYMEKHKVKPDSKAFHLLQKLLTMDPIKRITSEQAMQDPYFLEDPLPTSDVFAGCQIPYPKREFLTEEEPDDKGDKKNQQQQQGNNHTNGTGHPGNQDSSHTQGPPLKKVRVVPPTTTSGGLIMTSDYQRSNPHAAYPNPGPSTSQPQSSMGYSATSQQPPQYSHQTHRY
Dual specificity protein kinase CLK1 (Homo sapiens), sequence (P49759 whole entry, looked up, the tested form may be a part): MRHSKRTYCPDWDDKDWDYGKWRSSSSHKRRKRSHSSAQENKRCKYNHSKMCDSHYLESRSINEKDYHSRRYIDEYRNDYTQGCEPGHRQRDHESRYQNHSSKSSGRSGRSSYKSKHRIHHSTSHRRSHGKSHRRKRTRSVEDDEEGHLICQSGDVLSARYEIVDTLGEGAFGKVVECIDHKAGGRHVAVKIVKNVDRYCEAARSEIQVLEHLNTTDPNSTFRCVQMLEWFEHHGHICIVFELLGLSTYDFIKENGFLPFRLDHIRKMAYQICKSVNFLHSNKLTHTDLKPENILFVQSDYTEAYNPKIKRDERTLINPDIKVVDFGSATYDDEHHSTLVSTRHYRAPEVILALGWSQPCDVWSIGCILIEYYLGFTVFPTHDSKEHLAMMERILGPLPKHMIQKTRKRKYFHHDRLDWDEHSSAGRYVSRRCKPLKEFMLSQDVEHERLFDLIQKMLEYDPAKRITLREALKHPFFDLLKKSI

SMILES: O=C(Nc1cccc([C@@H]2CN(c3ncnc4[nH]ccc34)CCN2CCO)c1)Nc1c(F)cccc1N1CCCC1
- inhibition [1]: 43%
- inhibition [2]: 0.2%
- inhibition [3]: 55%
- inhibition [4]: 100%
- inhibition [5]: 33%
- inhibition [6]: 42%
- inhibition [7]: 28%
- inhibition [8]: 26%
- inhibition [9]: 90%
- inhibition [10]: 100%
- inhibition [11]: 74%
- inhibition [12]: 96%

SMILES: O=C(Nc1cccc([C@H]2CCCN(c3ncnc4[nH]ccc34)C2)c1)Nc1ccccc1N1CCCC1
- inhibition [13]: 95%
- inhibition [14]: 65%
- inhibition [15]: 53%
- inhibition [16]: 83%
- inhibition [17]: 93%
- inhibition [18]: 100%
- inhibition [19]: 72%
- inhibition [20]: 100%
- inhibition [21]: 18%
- inhibition [22]: 100%
- inhibition [23]: 97%
- inhibition [24]: 68%
- inhibition [25]: 86%
- inhibition [26]: 73%
